The test system of test [1] is HDAC activity in primary mouse cortical cultures. The experiment in a line: Whole-Cell Histone Deacetylase (HDAC) Inhibition Assay in Primary Mouse Cortical Cultures. The format is cell-based. The method in brief:
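Primary neocortical neurons from E17 Balb/C mouse embryos were plated at 50000 cells/well and treated at DIV9 with ten-point DMSO dilutions for 16-18 h at 37° C, in triplicate. BOC-Lys(Ac)-AMC substrate was then added for 1 h. Fluor de Lys developer containing 1 uM TSA produced a fluorophore, which was read.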

In test [2] the target is one or more of HDAC-1, HDAC-2, HDAC-3, HDAC-4, HDAC-5, HDAC-6, HDAC-7, HDAC-8, HDAC-9, HDAC-10 and HDAC-11. The experiment in a line: Inhibition of Histone Deacetylase Enzymatic Activity (Boc-Lys(Ac)-AMC substrate, Fluor-de-Lys developer). The note with it: read-out: HDAC Inhibition (IC50 μM) HDAC Enzyme. The format is biochemical. The method, then:
The following protocol is used to assay the compounds of the disclosure.
The mixture is pre-incubated for 5 minutes at room temperature. The reaction is started by bringing the temperature to 37° C. and adding 16 μl substrate. Total reaction volume is 50 μl.
In the Tables 8, 9 and 10, A≦0.05 μM; 0.05 μM<B≦0.1 μM; 0.1 μM<C≦1 μM; and 1 μM<D≦10 μM.

Where [3] appears, read: read-out: HDAC Inhibition (IC50 μM) WC mouse cortical neurons, Table 10.
[4] abbreviates: whole-cell (WC), mouse cortical neurons, Table 8, read-out: HDAC Inhibition (IC50 μM) WC mouse cortical neurons.
Setting [5] is: whole-cell (WC), mouse cortical neurons, Table 9, read-out: HDAC Inhibition (IC50 μM) WC mouse cortical neurons.
The mark [6] stands for this setting: whole-cell (WC), mouse cortical neurons, Table 10, read-out: HDAC Inhibition (IC50 μM) WC mouse cortical neurons.

Read-outs that look alike come from different tables or passages of the source.

As usually defined, the IC50 is the concentration at which inhibition is half-maximal.

In the case of `O=C(/C=C/c1ccc(CN2C(=O)CN=C(c3ccccc3)c3ccccc32)cc1)NO` [(E)-N-hydroxy-3-(4-(((Z)-2-oxo-5-phenyl-2,3-dihydro-1H-benzo[e][1,4]diazepin-1-yl)methyl)phenyl)acrylamide], the IC50 in test [1] (setting [3]) fell in the range of 1 to 5 µM; in test [2] (Table 10), 0.05 to 0.1 µM.

As for `Cc1cccc2c1Oc1ccccc1N=C2c1ccc(C(=O)NO)cc1` [(Z)—N-hydroxy-4-(4-methyldibenzo[b,f][1,4]oxazepin-11-yl)benzamide], the IC50 in test [1] (setting [4]) fell in the range of 1 to 5 µM; in test [2] (Table 8), 0.05 to 0.1 µM.

As for `CN1c2ccccc2Oc2ccccc2C1c1ccc(C(=O)NO)cc1` (centres unmarked) [N-hydroxy-4-(10-methyl-10,11-dihydrodibenzo[b,f][1,4]oxazepin-11-yl)benzamide], the IC50 in test [1] (setting [4]) fell in the range of 5 to 15 µM; in test [2] (Table 8), 0.1 to 1 µM.

In the case of `COc1cc(F)cc2c1Oc1ccccc1N=C2c1ccc(C(=O)NO)cc1` [(Z)-4-(2-fluoro-4-methoxydibenzo[b,f][1,4]oxazepin-11-yl)-N-hydroxybenzamide], the values for the IC50 in test [1] (setting [4]) and in test [2] (Table 8) were 1 to 5 µM and less than 0.05 µM, respectively.

With `O=C(NO)c1cnc(N2C[C@@H]3C[C@H]2CN3C(c2ccccc2)c2ccccc2)nc1` [2-((1S,4S)-5-benzhydryl-2,5-diazabicyclo[2.2.1]heptan-2-yl)-N-hydroxypyrimidine-5-carboxamide], the results for the IC50 in test [1] (setting [5]) and in test [2] (Table 9) were 1 to 5 µM and less than 0.05 µM, respectively.

As to `N#Cc1cccc(N2C[C@@H]3C[C@H]2CN3c2ccc(C(=O)NO)cc2)c1` [4-((1S,4S)-5-(3-cyanophenyl)-2,5-diazabicyclo[2.2.1]heptan-2-yl)-N-hydroxybenzamide], the IC50 was 1 to 5 µM in test [1] (setting [5]) and 0.1 to 1 µM in test [2] (Table 9).

With `O=C(CCCCCCN1C(=O)c2ccccc2N(C2CC2)c2ccccc21)NO` [7-(5-cyclopropyl-11-oxo-5H-dibenzo[b,e][1,4]diazepin-10(11H)-yl)-N-hydroxyheptanamide], the IC50 was 1 to 5 µM in test [1] (setting [6]) and 0.1 to 1 µM in test [2] (Table 10).

For the compound `CN(c1ncc(C(=O)NO)cn1)C1c2ccccc2CCc2ccccc21`, the IC50 was 1 to 5 µM in test [1] (setting [6]) and less than 0.05 µM in test [2] (Table 10).

`O=C(NO)c1cnc(NCC2c3ccccc3CCc3ccccc32)nc1`: the 50% inhibitory concentration (IC50) is 5 to 15 µM in test [1] (setting [6]) and less than 0.05 µM in test [2] (Table 10).

In the case of `CC(C)(C)OC(=O)N1C[C@@H]2C[C@H]1CN2c1ncc(C(=O)NO)cn1` [(1S,4S)-tert-butyl 5-(5-(hydroxycarbamoyl)pyrimidin-2-yl)-2,5-diazabicyclo[2.2.1]heptane-2-carboxylate], the IC50 is less than 1 µM in test [1] (setting [5]) and less than 0.05 µM in test [2] (Table 9).

Turning to `O=C(CCCCCCCN1C(=O)CN=C(c2ccccc2)c2ccccc21)NO` [(Z)-N-hydroxy-8-(2-oxo-5-phenyl-2,3-dihydro-1H-benzo[e][1,4]diazepin-1-yl)octanamide], the results for the IC50 in test [1] (setting [3]) and in test [2] (Table 10) were 1 to 5 µM and 0.1 to 1 µM, respectively.

Regarding `O=C(NO)c1ccc(N2C(=O)c3ccccc3Oc3ccccc32)cc1` [N-hydroxy-4-(11-oxodibenzo[b,f][1,4]oxazepin-10(11H)-yl)benzamide], the figures for the IC50 in test [1] (setting [6]) and in test [2] (Table 10) were greater than 15 µM and 0.1 to 1 µM, respectively.

For the compound `O=C(NO)c1cnc(OC(c2ccc(F)cc2)c2ccc(F)cc2)nc1` [2-(bis(4-fluorophenyl)methoxy)-N-hydroxypyrimidine-5-carboxamide], the IC50 in test [1] (setting [6]) is greater than 15 µM; in test [2] (Table 10), 0.1 to 1 µM.

With `O=C(NO)c1ccc(CCCN2C(=O)c3ccccc3Oc3ccccc32)cc1` [N-hydroxy-4-(3-(11-oxodibenzo[b,f][1,4]oxazepin-10(11H)-yl)propyl)benzamide], the values for the IC50 in test [1] (setting [6]) and in test [2] (Table 10) were less than 1 µM and 0.05 to 0.1 µM, respectively.

With `O=C(NO)c1cnc(N2C[C@@H]3C[C@H]2CN3C(=O)OCc2ccccc2)nc1` [(1S,4S)-benzyl 5-(5-(hydroxycarbamoyl)pyrimidin-2-yl)-2,5-diazabicyclo[2.2.1]heptane-2-carboxylate], the IC50 in test [1] (setting [5]) is less than 1 µM; in test [2] (Table 9) it was less than 0.05 µM.

Regarding `Cc1ccc(N2C[C@@H]3C[C@H]2CN3c2ncc(C(=O)NO)cn2)cc1` [N-hydroxy-2-((1S,4S)-5-p-tolyl-2,5-diazabicyclo[2.2.1]heptan-2-yl)pyrimidine-5-carboxamide], the values for the IC50 in test [1] (setting [5]) and in test [2] (Table 9) were less than 1 µM and less than 0.05 µM, respectively.

With `O=C(NO)c1ccc(C2=Nc3ccccc3Oc3cccc(F)c32)cc1` [(Z)-4-(1-fluorodibenzo[b,f][1,4]oxazepin-11-yl)-N-hydroxybenzamide], the results for the IC50 in test [1] (setting [4]) and in test [2] (Table 8) were 5 to 15 µM and less than 0.05 µM, respectively.

For the compound `O=C(NO)c1cnc(N2C[C@@H]3C[C@H]2CN3c2cccc(C(F)(F)F)c2)cn1` [N-hydroxy-5-((1S,4S)-5-(3-(trifluoromethyl)phenyl)-2,5-diazabicyclo[2.2.1]heptan-2-yl)pyrazine-2-carboxamide], the IC50 lay within 5 to 15 µM in test [1] (setting [5]) and 0.1 to 1 µM in test [2] (Table 9).

Turning to `O=C(NO)c1ccc(C2=Nc3ccccc3Oc3c(F)cccc32)cc1` [(Z)-4-(4-fluorodibenzo[b,f][1,4]oxazepin-11-yl)-N-hydroxybenzamide], the IC50 lay in the range of 5 to 15 µM in test [1] (setting [4]) and 0.1 to 1 µM in test [2] (Table 8).

On to `O=C(NO)c1ccc(CCNC2=Nc3ccccc3Oc3ccccc32)cc1` [(E)-4-(2-(dibenzo[b,f][1,4]oxazepin-11-ylamino)ethyl)-N-hydroxybenzamide], for which the IC50 lay within 5 to 15 µM in test [1] (setting [4]) and 0.1 to 1 µM in test [2] (Table 8).

`O=C(NO)c1ccc(C2=Nc3ccccc3N(C3CC3)c3ncccc32)cc1` [(Z)-4-(11-cyclopropyl-11H-benzo[b]pyrido[2,3-e][1,4]diazepin-5-yl)-N-hydroxybenzamide]: the IC50 in test [1] (setting [4]) is less than 1 µM; in test [2] (Table 8), less than 0.05 µM.

As to `O=C(NO)c1ccc(C2=Nc3ccccc3Oc3cc(F)ccc32)cc1` [(Z)-4-(3-fluorodibenzo[b,f][1,4]oxazepin-11-yl)-N-hydroxybenzamide], the IC50 was greater than 15 µM in test [1] (setting [4]) and 0.1 to 1 µM in test [2] (Table 8).

`O=C(NO)c1cnc(ON=C(c2ccccc2)c2ccccc2)nc1` [2-(diphenylmethyleneaminooxy)-N-hydroxypyrimidine-5-carboxamide]: the results for the IC50 in test [1] (setting [6]) and in test [2] (Table 10) were 5 to 15 µM and 1 to 10 µM, respectively.

Turning to `O=C(NO)c1ccc(/C=C/CN2C(=O)c3ccccc3Oc3ccccc32)cc1` [(E)-N-hydroxy-4-(3-(11-oxodibenzo[b,f][1,4]oxazepin-10(11H)-yl)prop-1-enyl)benzamide], the IC50 in test [1] (setting [6]) is less than 1 µM; in test [2] (Table 10), 0.05 to 0.1 µM.

With `CN1CCC2=C(C1)Oc1ccccc1N(CCOc1ccc(C(=O)NO)cc1)C2=O`, the IC50 is less than 1 µM in test [1] (setting [6]) and less than 0.05 µM in test [2] (Table 10).

As to `Cc1ccc(N2C[C@@H]3C[C@H]2CN3c2ccc(C(=O)NO)cc2)cc1` [N-hydroxy-4-((1S,4S)-5-p-tolyl-2,5-diazabicyclo[2.2.1]heptan-2-yl)benzamide], the IC50 is 1 to 5 µM in test [1] (setting [5]) and 0.1 to 1 µM in test [2] (Table 9).

Regarding `CC(C)N1c2ccccc2N=C(c2ccc(C(=O)NO)cc2)c2ccccc21` [(Z)—N-hydroxy-4-(5-isopropyl-5H-dibenzo[b,e][1,4]diazepin-11-yl)benzamide], the figures for the IC50 in test [1] (setting [4]) and in test [2] (Table 8) were less than 1 µM and less than 0.05 µM, respectively.

As for `O=C(CCCCCCN1C(=O)c2cccnc2N(C2CC2)c2ccccc21)NO` [7-(11-cyclopropyl-5-oxo-5H-benzo[b]pyrido[2,3-e][1,4]diazepin-6(11H)-yl)-N-hydroxyheptanamide], the IC50 in test [1] (setting [6]) is 1 to 5 µM; in test [2] (Table 10), 0.05 to 0.1 µM.

For the origin of these results see US20170000749A1, “Methods for Treating Cognitive Disorders Using Inhibitors of Histone Deacetylase” (Forum Pharmaceuticals, Inc., priority 2008, published 2017).
